Laboratory results as given in patent publication US20240226058A1, “STABILIZED CANNABINOID COMPOSITIONS AND METHODS OF PREPARATION THEREOF” (priority 2020, published 2024).

Experiments:
[1] = Cannabinoid stability in cold-brewed coffee with tocopherol-containing emulsions; assay type: physicochemical; conditions: cold-brewed coffee base (FIG. 5)
From the text: FIG. 5 is a graph showing quantified THC content when alpha-tocopherol (Vitamin E, VE) was incorporated into our emulsion alongside THC. Alpha-tocopherol (Vitamin E, VE) was incorporated into the emulsion alongside THC.
FIG. 6 is a graph showing cannabinoid stability testing on a cold-brewed coffee product (20× concentrated base and final product) using two different emulsions containing tocopherols (QNE=our in-house Q-naturale+VitE emulsion; NGAO=Nanogen's (a 3rd party emulsion provider) antioxidant formulation).

[2] = THC content in infused hop water stored at room temperature; assay type: physicochemical; conditions: for protection of cannabinoid API against oxidative damage: infused beverage, tocopherols emulsified with cannabis oil, ascorbic acid about 0.5-1 mM in aqueous base
[3] = Heat-accelerated (~37° C.) THC stability with aqueous-phase vitamin C and/or EDTA; assay type: physicochemical; conditions: for THC loss compared to control: vitamin C or EDTA individually, actual hop water base (FIG. 9)
[4] = THC loss in RO water at pH 3.6 vs. neutral pH; assay type: physicochemical; conditions: 20 mg THC/355 mL, citric acid to pH 3.6 (FIG. 4)
Protocol: FIG. 4 is a graph showing an experiment ruling out pH as a driving factor behind THC loss. Dosed RO water to 20 mg THC/355 mL and used citric acid to pH down to 3.6 (which is the pH of the Infused hop water products) vs. neutral pH (had to bring H2O pH up a bit using sodium carbonate). No difference was observed.

[5] = In-house comparison of oxidation rates of emulsified cannabinoids
[6] = Color and flavor stability of infused hop water at 37° C. incubation; assay type: physicochemical

Cc1c(C)c2c(c(C)c1O)CC[C@@](C)(CCC[C@H](C)CCC[C@H](C)CCCC(C)C)O2 [Alpha-tocopherol, alpha-tocopherol]
THC content, emulsion formulated with vs without Vitamin E [1]: no appreciable difference

CCCCCc1cc(O)c2c(c1)OC(C)(C)c1ccc(C)cc1-2 [CBN, cannabinol]
Maximal CBN levels observed ([2]; room temperature infused hop water samples (FIG. 2)): about 20 % of the original THC content

O=C(O)CN(CCN(CC(=O)O)CC(=O)O)CC(=O)O [EDTA, ethylenediaminetetraacetic acid]
THC loss compared to control [3]: able to mitigate THC loss compared to control, but did not fully prevent it

CCCCCc1cc(O)c2c(c1)OC(C)(C)[C@@H]1CCC(C)=C[C@@H]21 [THC, Δ^9-tetrahydrocannabinol, reference compound]
THC loss, pH 3.6 vs neutral pH [4]: No difference | rate of oxidation compared to CBD [5]: drastically faster rates of oxidation | rate of THC loss ([2]; infused hop water beverages, room temperature, no antioxidants added, linear (FIG. 1)): roughly −0.35 % THC per day | rate of THC loss in high dissolved oxygen (DO) samples ([3]; aerated samples, shaken with air exposure (FIG. 8)): fastest rate of THC loss | rate of THC loss with intentional increase in DO levels ([3]; heat-accelerated, three emulsion formulations (FIG. 10)): faster rates of loss

O=C1O[C@H]([C@@H](O)CO)C(O)=C1O [vitamin C, ascorbic acid]
protection of cannabinoid API against oxidative damage [2]: ample protection | THC loss compared to tocopherol-only preparations ([2]; room temperature, after roughly five months): negligible amounts of THC loss | color and flavor alterations in the beverage product ([6]; heat-accelerated, 30 days @ ~37° C.): strongly protected against unfavorable color and flavor alterations | formation of off-colors and flavors ([6]; infused hop water, 3 weeks at 37° C., EDTA 25 ppm, vitamin C 176 ppm): largely prevent formation of off-colors and flavors | antioxidant efficacy between concentrations ([3]; 0.5-10 mM vitamin C, infused hop water, 4 weeks heat-accelerated (~9 months at RT) (FIG. 11)): little difference | protection to THC ([3]; 30 days @ ~37° C., equivalent to ~10 months at room temperature): sufficient protection | THC (cannabinoid) loss ([3]; Vitamin C 176 ppm=1 mM and/or EDTA 25 ppm in aqueous phase, hop terpene-infused base (FIG. 7)): slowed rates of cannabinoid loss | concentration of vitamin C concluded sufficient ([3]; infused hop water products (FIG. 11)): 500 µM | THC loss compared to control [3]: able to mitigate THC loss compared to control, but did not fully prevent it

Tocopherols
protection of cannabinoid API against oxidative damage [2]: not found to suitably mitigate oxidative damage by itself
